Laboratory results: US9481670B2, “Triazine compounds” (Sphaera Pharma PTE. Ltd., priority 2011, dated 2016)

molecular target: T1, PI3K alpha (Homo sapiens, UniProt P42336); test: P110 Alpha TR-FRET Assay (PI3K alpha kinase assay, HTRF Transcreener ADP Assay); assay type: biochemical; details: PI3K (WT)
T1 construct: purchased Millipore Upstate
In short: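 Enzyme (50 ng) and compound were preincubated 20 min in HEPES pH 7.5 buffer containing MgCl2, DTT and vanadate before 10 μM ATP plus 5 μM PIP2 substrate was added for 20 min. ADP produced was quantified by TR-FRET (ADP-d2, anti-ADP cryptate, 1 h).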

T1 sequence (P42336 whole entry): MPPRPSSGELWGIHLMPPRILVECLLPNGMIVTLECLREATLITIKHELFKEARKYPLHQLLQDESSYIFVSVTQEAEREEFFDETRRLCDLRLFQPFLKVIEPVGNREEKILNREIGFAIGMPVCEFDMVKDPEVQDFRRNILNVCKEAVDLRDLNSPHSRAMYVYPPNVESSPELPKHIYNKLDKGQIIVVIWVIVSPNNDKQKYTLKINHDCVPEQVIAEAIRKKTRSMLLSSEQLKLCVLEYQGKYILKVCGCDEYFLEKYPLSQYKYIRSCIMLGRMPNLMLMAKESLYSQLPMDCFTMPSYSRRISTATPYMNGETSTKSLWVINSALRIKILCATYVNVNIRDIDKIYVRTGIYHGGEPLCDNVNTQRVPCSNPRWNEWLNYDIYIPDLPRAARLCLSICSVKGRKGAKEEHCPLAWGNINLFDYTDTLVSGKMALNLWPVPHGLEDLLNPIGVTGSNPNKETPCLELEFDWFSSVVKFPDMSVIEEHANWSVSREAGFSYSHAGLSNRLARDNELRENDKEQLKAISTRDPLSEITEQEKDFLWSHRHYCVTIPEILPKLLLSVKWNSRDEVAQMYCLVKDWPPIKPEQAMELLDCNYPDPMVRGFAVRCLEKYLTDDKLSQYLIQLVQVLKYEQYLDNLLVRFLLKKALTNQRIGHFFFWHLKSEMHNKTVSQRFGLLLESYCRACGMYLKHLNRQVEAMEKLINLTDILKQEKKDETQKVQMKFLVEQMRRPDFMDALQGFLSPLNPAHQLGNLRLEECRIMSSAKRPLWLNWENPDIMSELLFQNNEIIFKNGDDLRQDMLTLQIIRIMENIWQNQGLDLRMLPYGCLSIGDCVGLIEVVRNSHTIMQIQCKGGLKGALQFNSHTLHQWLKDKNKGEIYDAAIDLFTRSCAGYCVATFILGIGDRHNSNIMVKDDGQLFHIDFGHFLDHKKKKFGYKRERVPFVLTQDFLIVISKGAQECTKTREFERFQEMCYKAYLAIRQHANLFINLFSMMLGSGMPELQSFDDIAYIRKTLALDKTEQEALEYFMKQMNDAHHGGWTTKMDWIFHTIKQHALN
T1 sequence (P27986 whole entry partner): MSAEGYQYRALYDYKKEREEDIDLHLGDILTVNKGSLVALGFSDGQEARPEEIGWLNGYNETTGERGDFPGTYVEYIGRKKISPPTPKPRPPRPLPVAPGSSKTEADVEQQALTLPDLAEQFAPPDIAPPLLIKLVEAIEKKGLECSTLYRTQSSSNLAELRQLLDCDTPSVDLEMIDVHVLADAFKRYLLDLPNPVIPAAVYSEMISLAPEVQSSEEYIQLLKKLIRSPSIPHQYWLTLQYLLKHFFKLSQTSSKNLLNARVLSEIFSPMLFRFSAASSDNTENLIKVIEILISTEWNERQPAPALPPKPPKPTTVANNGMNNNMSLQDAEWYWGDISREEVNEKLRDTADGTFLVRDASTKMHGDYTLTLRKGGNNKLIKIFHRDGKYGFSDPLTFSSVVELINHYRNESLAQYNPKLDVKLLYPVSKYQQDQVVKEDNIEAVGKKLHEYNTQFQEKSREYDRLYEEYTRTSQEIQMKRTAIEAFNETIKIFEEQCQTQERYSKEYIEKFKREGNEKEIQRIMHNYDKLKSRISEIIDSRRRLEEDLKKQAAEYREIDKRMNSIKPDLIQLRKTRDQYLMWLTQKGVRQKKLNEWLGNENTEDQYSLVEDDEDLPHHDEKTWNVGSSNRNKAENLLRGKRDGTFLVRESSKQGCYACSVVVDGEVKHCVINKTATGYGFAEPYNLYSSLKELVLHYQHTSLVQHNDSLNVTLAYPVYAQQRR

Row | IC50 | SMILES
1 | < 5 µM | CC(Nc1nc(-c2cccc(O)c2)nc(N2CCOCC2)n1)C(=O)N1CCN(S(C)(=O)=O)CC1 (stereo not drawn) [Compound 1076, 2-((4-(3-hydroxyphenyl)-6-morpholino-1,3,5-triazin-2-yl)amino)-1-(4-(methylsulfonyl)piperazin-1-yl)propan-1-one]
2 | > 5 µM | Nc1nc(-c2ccccc2)nc(N2CCOCC2)n1 [Compound 1162, 4-0-(morpholin-4-yl)-6-4-phenyl-1,3,5-triazin-2-amine]
3 | < 5 µM | CN(C)C(=O)[C@H]1CCCN1c1nc(-c2cccc3[nH]ncc23)nc(N2CCOCC2)n1 [Compound 1217, (2R)-1-7-[4-1-(1H-indazol-4-yl)-6-5-(morpholin-4-yl)-1,3,5-triazin-2-yl]-N,N-dimethylpyrrolidine-2-carboxamide]
4 | < 5 µM | CS(=O)(=O)N1CCN(C(=O)CCNc2nc(-c3cccc4[nH]ncc34)nc(N3CCOCC3)n2)CC1 [Compound 1191, 3-((4-(1H-indazol-4-yl)-6-morpholino-1,3,5-triazin-2-yl)amino)-1-(4-(methylsulfonyl)piperazin-1-yl)propan-1-one]
5 | < 5 µM | CN(C)C(=O)c1ccc(Oc2nc(-c3cccc(O)c3)nc(N3CCOCC3)n2)cc1 [Compound 1030, 4-14-{[4-1-(3-21-hydroxyphenyl)-6-5-(morpholin-4-yl)-1,3,5-triazin-2-yl]oxy}-N,N-dimethylbenzamide]
6 | < 5 µM | c1cc(-c2nc(OC3CCNCC3)nc(N3CCOCC3)n2)c2cn[nH]c2c1 [Compound 1151, 4-7-[4-5-(morpholin-4-yl)-6-3-(piperidin-4-yloxy)-1,3,5-triazin-2-yl]-1H-indazole]
7 | > 5 µM | CN(C)C(=O)c1ccc(Oc2nc(-c3cccc4[nH]ncc34)nc(N3C4CCC3COC4)n2)cc1 [Compound 1068, 4-9-{[4-1-(1H-indazol-4-yl)-6-5-{3-oxa-8-azabicyclo[3.2.1]octan-8-yl}-1,3,5-triazin-2-yl]oxy}-N,N-dimethylbenzamide]
8 | < 5 µM | CS(=O)(=O)N[C@H]1CCC[C@H](Oc2nc(-c3cccc4c3cnn4S(C)(=O)=O)nc(N3CCOCC3)n2)C1 [Compound 1048, N-[(1S,3S)-3-14-{[4-1-(1-27-methanesulfonyl-1H-indazol-4-yl)-6-5-(morpholin-4-yl)-1,3,5-triazin-2-yl]oxy}cyclohexyl]methanesulfonamide]
9 | < 5 µM | CN(C)C(=O)N1CCN(Cc2nc(-c3ccc(N)nc3)nc(N3CCOCC3)n2)CC1 [Compound 1049, 4-((4-(6-aminopyridin-3-yl)-6-morpholino-1,3,5-triazin-2-yl)methyl)-N,N-dimethylpiperazine-1-carboxamide]
10 | > 5 µM | O=C(O)CNc1nc(-c2ccccc2)nc(N2CCOCC2)n1 [Compound 1203, 2-((4-morpholino-6-phenyl-1,3,5-triazin-2-yl)amino)acetic acid]
11 | < 5 µM | NC(=O)c1cccn1-c1nc(-c2cccc3[nH]ncc23)nc(N2CCOCC2)n1 [Compound 1182, 1-8-[4-1-(1H-indazol-4-yl)-6-5-(morpholin-4-yl)-1,3,5-triazin-2-yl]-1H-pyrrole-2-carboxamide]
12 | < 5 µM | CN(C)C(=O)c1ccc(Oc2nc(-c3ccnc(N)c3)nc(N3CCOCC3)n2)cc1 [Compound 1036, 4-14-{[4-1-(2-26-aminopyridin-4-yl)-6-5-(morpholin-4-yl)-1,3,5-triazin-2-yl]oxy}-N,N-dimethylbenzamide]
13 | > 5 µM | O=C(O)CNc1nc(-c2ccc(O)nc2)nc(N2CCOCC2)n1 [Compound 1176, 2-((4-(6-hydroxypyridin-3-yl)-6-morpholino-1,3,5-triazin-2-yl)amino)acetic acid]
14 | < 5 µM | c1cc(Nc2nc(-c3cccc4[nH]ncc34)nc(N3CCOCC3)n2)c2cn[nH]c2c1 [Compound 1205, N-(4-(1H-indazol-4-yl)-6-morpholino-1,3,5-triazin-2-yl)-1H-indazol-4-amine]
15 | < 5 µM | CS(=O)(=O)N[C@H]1CC[C@H](Oc2nc(-c3cccc4[nH]ncc34)nc(N3CCOCC3)n2)CC1 [Compound 1095, N-[(1r,4r)-4-9-{[4-1-(1H-indazol-4-yl)-6-5-(morpholin-4-yl)-1,3,5-triazin-2-yl]oxy}cyclohexyl]methanesulfonamide]
16 | < 5 µM | CNC(=O)c1ccc(Oc2nc(-c3cnc(N)s3)nc(N3CCOCC3)n2)cc1 [Compound 1082]
17 | < 5 µM | CN(C)C(=O)CCNc1nc(-c2ccc(N)nc2)nc(N2CCOCC2)n1 [Compound 1104, 3-((4-(6-aminopyridin-3-yl)-6-morpholino-1,3,5-triazin-2-yl)amino)-N,N-dimethylpropanamide]
18 | < 5 µM | O=C1CN(c2nc(-c3cccc4[nH]ncc34)nc(N3CCOCC3)n2)CCN1 [Compound 1230, 4-7-[4-1-(1H-indazol-4-yl)-6-5-(morpholin-4-yl)-1,3,5-triazin-2-yl]piperazin-2-one]

Row | IC50 | SMILES
19 | > 5 µM | O=C(O)CNc1nc(-c2cccc3c2CCC3=O)nc(N2CCOCC2)n1 [Compound 1078, 2-((4-morpholino-6-(1-oxo-2,3-dihydro-1H-inden-4-yl)-1,3,5-triazin-2-yl)amino)acetic acid]
20 | < 5 µM | Nc1ncc(-c2nc(N3CCOCC3)nc(N3CCOCC3)n2)s1 [Compound 1042, 5-7-[4-3,6-5-bis(morpholin-4-yl)-1,3,5-triazin-2-yl]-1,3-thiazol-2-amine]
21 | < 5 µM | Cc1cc(-c2nc(Oc3ccc(C(=O)N(C)C)cc3)nc(N3CCOCC3)n2)cnc1N [Compound 1018, 4-14-{[4-1-(6-27-amino-5-26-methylpyridin-3-yl)-6-5-(morpholin-4-yl)-1,3,5-triazin-2-yl]oxy}-N,N-dimethylbenzamide]
22 | < 5 µM | Nc1ccc(-c2nc(Oc3ccc4c(c3)CCC(=O)N4)nc(N3CCOCC3)n2)cn1 [Compound 1010, 6-20-{[4-1-(6-11-ammopyridin-3-yl)-6-5-(morpholin-4-yl)-1,3,5-triazin-2-yl]oxy}-1,2,3,4-tetrahydroquinolin-2-one]
23 | < 5 µM | CC(C)(C)OC(=O)N1CCC(NC(=O)c2cccc(Nc3nc(-c4cccc5[nH]ncc45)nc(N4CCOCC4)n3)c2)CC1 [Compound 1116, tert-butyl 4-(3-((4-(1H-indazol-4-yl)-6-morpholino-1,3,5-triazin-2-yl)amino)benzamido)piperidine-1-carboxylate]
24 | < 5 µM | CNC(=O)N1CCN(c2nc(-c3cccc4[nH]ncc34)nc(N3CCOCC3)n2)CC1 [Compound 1218, 4-7-[4-1-(1H-indazol-4-yl)-6-5-(morpholin-4-yl)-1,3,5-triazin-2-yl]-N-methylpiperazine-1-carboxamide]
25 | < 5 µM | O=C(c1cccc(Nc2nc(-c3cccc4[nH]ncc34)nc(N3CCOCC3)n2)c1)N1CCNCC1 [Compound 1171, (3-((4-(1H-indazol-4-yl)-6-morpholino-1,3,5-triazin-2-yl)amino)phenyl)(piperazin-1-yl)methanone]
26 | < 5 µM | CN(C)C(=O)N1CC[C@H](COc2nc(-c3ccc(N)nc3)nc(N3CCOCC3)n2)C1 [Compound 1025, 3-21-({[4-3-(6-16-aminopyridin-3-yl)-6-5-(morpholin-4-yl)-1,3,5-triazin-2-yl]oxy}methyl)-N,N-dimethylpyrrolidine-1-carboxamide]
27 | < 5 µM | O=C(c1cccc(Nc2nc(-c3cccc4[nH]ncc34)nc(N3CCOCC3)n2)c1)N1CCOCC1 [Compound 1173, (3-((4-(1H-indazol-4-yl)-6-morpholino-1,3,5-triazin-2-yl)amino)phenyl)(morpholino)methanone]
28 | < 5 µM | COC(=O)C1CCN(c2nc(-c3cccc4[nH]ncc34)nc(N3CCOCC3)n2)C1 (stereo not drawn) [Compound 1207, methyl 1-12-[4-1-(1H-indazol-4-yl)-6-5-(morpholin-4-yl)-1,3,5-triazin-2-yl]pyrrolidine-3-carboxylate]
29 | > 5 µM | CN(C)C(=O)c1ccc(Oc2nc(-c3cccc4[nH]c(=O)[nH]c34)nc(N3CCOCC3)n2)cc1 [Compound 1034, N,N-dimethyl-4-14-{[4-5-(morpholin-4-yl)-6-1-(2-21-oxo-2,3-dihydro-1H-1,3-benzodiazol-4-yl)-1,3,5-triazin-2-yl]oxy}benzamide]
30 | < 5 µM | CS(=O)(=O)Nc1ccc(Oc2nc(-c3cccc4[nH]ncc34)nc(N3CCOCC3)n2)cc1 [Compound 1093, N-(4-14-{[4-1-(1H-indazol-4-yl)-6-5-(morpholin-4-yl)-1,3,5-triazin-2-yl]oxy}phenyl)methanesulfonamide]
31 | < 5 µM | CN(C)C(=O)c1ccc(Oc2nc(-c3ccc4[nH]ccc4c3)nc(N3CCOCC3)n2)cc1 [Compound 1052, 4-14-{[4-1-(1H-indol-5-yl)-6-5-(morpholin-4-yl)-1,3,5-triazin-2-yl]oxy}-N,N-dimethylbenzamide]
32 | < 5 µM | CN(C)C(=O)CNc1nc(-c2cncc(O)c2)nc(N2CCOCC2)n1 [Compound 1150, 2-((4-(5-hydroxypyridin-3-yl)-6-morpholino-1,3,5-triazin-2-yl)amino)-N,N-dimethylacetamide]
33 | < 5 µM | CN(C)C(=O)c1ccc(Oc2nc(-c3cnc(N)s3)nc(N3C4CCC3COC4)n2)cc1 [Compound 1001, 4-8-{[4-1-(2-11-amino-1,3-thiazol-5-yl)-6-5-{3-oxa-8-azabicyclo[3.2.1]octan-8-yl}-1,3,5-triazin-2-yl]oxy}-N,N-dimethylbenzamide]
34 | > 5 µM | CN(C)C(=O)CNc1nc(-c2cccc(C(N)=O)c2)nc(N2CCOCC2)n1 [Compound 1122, 3-12-(4-0-{[(dimethylcarbamoyl)methyl]amino}-6-4-(morpholin-4-yl)-1,3,5-triazin-2-yl)benzamide]
35 | < 5 µM | CN(C)C(=O)c1ccc(Nc2nc(-c3ccc(N)nc3)nc(N3CCOCC3)n2)cc1 [Compound 1065, 4-((4-(6-aminopyridin-3-yl)-6-morpholino-1,3,5-triazin-2-yl)amino)-N,N-dimethylbenzamide]
36 | > 5 µM | CN(C)C(=O)CNc1nc(-c2ccc(N)cc2)nc(N2CCOCC2)n1 [Compound 1185, 2-((4-(4-aminophenyl)-6-morpholino-1,3,5-triazin-2-yl)amino)-N,N-dimethylacetamide]
